The text below walks through data of ChEMBL document CHEMBL1156335, “Inhibition studies of a beta-carbonic anhydrase from Brucella suis with a series of water soluble glycosyl sulfanilamides” (Bioorg Med Chem Lett, 2010).

The target of the experiment is T1, Histidinol dehydrogenase (Brucella suis biovar 1 (strain 1330)) (UniProt Q8G2R2).
T1 sequence (whole entry): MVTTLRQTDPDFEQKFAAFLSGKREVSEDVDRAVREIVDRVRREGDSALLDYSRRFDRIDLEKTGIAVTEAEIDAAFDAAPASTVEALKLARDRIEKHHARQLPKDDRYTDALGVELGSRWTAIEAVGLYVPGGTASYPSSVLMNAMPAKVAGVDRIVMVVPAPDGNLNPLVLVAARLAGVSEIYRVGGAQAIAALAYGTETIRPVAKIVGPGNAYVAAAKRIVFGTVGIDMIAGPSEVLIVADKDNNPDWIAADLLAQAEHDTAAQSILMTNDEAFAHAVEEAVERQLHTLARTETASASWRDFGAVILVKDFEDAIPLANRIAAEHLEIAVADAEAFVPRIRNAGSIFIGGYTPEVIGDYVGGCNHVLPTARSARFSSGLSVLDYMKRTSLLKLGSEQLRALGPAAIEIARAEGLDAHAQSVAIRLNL
The experiment is described as follows: Antibacterial activity against Brucella suis at 10 uM after 8 to 11 days. In kind it is functional.

Activity calls are given as the source filed them. The calls are words filed in the database; no cut-off is given here.

In the case of `C[C@H]1O[C@@H](Nc2ccc(S(N)(=O)=O)cc2)[C@@H](O)[C@@H](O)[C@@H]1O`, the result was Active.
